Among the data in the OligoGym collection are target mRNA inhibition values, retold here.

In one data set the target is SOD1. To be noted: ASO, HepG2, 5 µM.
In a further data set the target is APOL1. The conditions noted are these: ASO.

Where “and” joins values, the source holds several entries; their conditions need not be identical. Equal entries are not always repeated. After the bases stand the sugars from the 5' end (letter, count) and the backbone: PS all phosphorothioate, else s phosphorothioate and o phosphodiester by linkage. Methylation of C is not given here. e = 2'-O-(2-methoxyethyl) (MOE); k = constrained ethyl (cEt); d = 2'-deoxy (DNA)

Sequence “AAACTATACAAATCTTC (sugars e2 k2 d8 k2 e3, PS)” had a target mRNA inhibition with SOD1 of 55%.
For the sequence TCATAGATACTCCTCA (sugars k3 d10 k3, PS), the target mRNA inhibition with APOL1 (A431, 0.0156 µM) came to 8%; with APOL1 (A431, 0.0625 µM) it was 17%; in the data set with APOL1 (A431, 0.25 µM), 51%; with APOL1 (A431, 1 µM), 80%.
Take TCATCATAGATACTCC (sugars k4 d9 k3, PS): the target mRNA inhibition with APOL1 (A431, 0.0625 µM) amounted to 33%; with APOL1 (A431, 0.25 µM) it was 67%; with APOL1 (A431, 1 µM), 84%.
For TCATTAGTGCTATAGA (sugars k4 d9 k3, PS), the target mRNA inhibition with APOL1 (A431, 0.0625 µM) is 25%; with APOL1 (A431, 0.25 µM), 71%; with APOL1 (A431, 1 µM), 86%.
Take TCCAGATGTGTTTAGG (sugars k4 d9 k3, PS): the target mRNA inhibition in the data set with APOL1 (A431, 0.0625 µM) was 82%; in the data set with APOL1 (A431, 0.25 µM), 89%; in the data set with APOL1 (A431, 1 µM), 94%.
In the case of TCCGTCAATATATTCT (sugars k3 d10 k3, PS), the target mRNA inhibition came out at 83% with APOL1 (A431, 0.0625 µM); 96% with APOL1 (A431, 0.25 µM); 98% in the data set with APOL1 (A431, 1 µM).
In the case of “TCCGTCAATATATTCT (sugars kkddddkekekddddd, PS)”, in the data set with APOL1 (A431, 2 µM), the target mRNA inhibition was 94%.
Turning to “TCCGTCAATATATTCT (sugars kkkddddkekekdddd, PS)”, the target mRNA inhibition in the data set with APOL1 (A431, 0.0156 µM) is 30%; with APOL1 (A431, 0.04 µM) it was 50%; in the data set with APOL1 (A431, 0.0625 µM), 57%; with APOL1 (A431, 0.25 µM), 84%; with APOL1 (A431, 1 µM) it was 94%; with APOL1 (A431, 2 µM), 95%.
In the case of TCCGTTCCAGGCCTCA (sugars k4 d9 k3, PS), the target mRNA inhibition in the data set with APOL1 (A431, 0.0625 µM) was 29%; in the data set with APOL1 (A431, 0.25 µM) it was 44%; in the data set with APOL1 (A431, 1 µM), 58%.
In the same order, the values of TCCTGGGCGGCGACAA (sugars k4 d9 k3, PS) are 46%, 74% and 85%.
“TCTATTAGAGGGCTAG (sugars k3 d4 k3 e1 d5, PS)” showed a target mRNA inhibition with APOL1 (A431, 2 µM) of 51%.
Same read-out and setting: the result for “TCTATTAGAGGGCTAG (sugars kkdddddkekeddddd, PS)” reads 72%; that for “TCTATTAGAGGGCTAG (sugars kkddddkdkdkddddd, PS)”, 68%.
In the data set with APOL1 (A431, 2 µM), “TCTATTAGAGGGCTAG (sugars kkddddkekekddddd, PS)” registered a target mRNA inhibition of 52%.
Same read-out and setting: then “TCTATTAGAGGGCTAG (sugars kkddddkekekkdddd, PS)”, with 25%; and “TGGGAATTATGGAATT (sugars kkddddkekekddddd, PS)”, with 87%.
Turning to TGGGTCAAAAGCGATG (sugars k4 d9 k3, PS), the target mRNA inhibition with APOL1 (A431, 0.0625 µM) was 25%; with APOL1 (A431, 0.25 µM), 54%; with APOL1 (A431, 1 µM), 77%.
Take “TGGTTCAAAAGCAGCA (sugars kkddddekekeddddd, PS)”: in the data set with APOL1 (A431, 2 µM), the target mRNA inhibition is 82%.
The sequence “TGGTTCAAAAGCAGCA (sugars kkddddkekekddddd, PS)” yielded a target mRNA inhibition with APOL1 (A431, 2 µM) of 68%.
Same read-out and setting: then “TGGTTCAAAAGCAGCA (sugars kkkddddkekekdddd, PS)”, with 57%; and “TGTAAGTGCAACCAAT (sugars kdddddkekekddddd, PS)”, with 81%; and “TGTATTTCTTGATGTG (sugars k2 d4 e3 k2 d5, PS)”, with 87%.
As to “TGTTATATTTGATCCT (sugars k2 d4 e3 k2 d5, PS)”, the target mRNA inhibition in the data set with APOL1 (A431, 2 µM) worked out at 87%.
With “TGTTATATTTGATCCT (sugars kekddddeekkddddd, PS)”, the target mRNA inhibition with APOL1 (A431, 0.0156 µM) amounted to 31%; with APOL1 (A431, 0.0625 µM) it was 40%; in the data set with APOL1 (A431, 0.25 µM), 70%; in the data set with APOL1 (A431, 1 µM), 89%; with APOL1 (A431, 2 µM), 94%.
On to “TGTTATATTTGATCCT (sugars kkdddddkekeddddd, PS)”, for which the target mRNA inhibition in the data set with APOL1 (A431, 0.0156 µM) amounted to 33%; in the data set with APOL1 (A431, 0.04 µM), 50%; with APOL1 (A431, 0.0625 µM) it was 59%; in the data set with APOL1 (A431, 0.25 µM), 81%; with APOL1 (A431, 1 µM) it was 92%; with APOL1 (A431, 2 µM) it was 92%.
In turn, “TGTTATATTTGATCCT (sugars kkddddkdkdkddddd, PS)” registered a target mRNA inhibition with APOL1 (A431, 2 µM) of 86%.
In the case of “TGTTATATTTGATCCT (sugars kkkddddkdkdkdddd, PS)”, the target mRNA inhibition in the data set with APOL1 (A431, 2 µM) came to 66%.
With “TTATACCAGTGTCTTC (sugars kdddddkekekddddd, PS)”, in the data set with APOL1 (A431, 2 µM), the target mRNA inhibition was 82%.
“TTATATTTGATCCTCA (sugars kddddkekekeddddd, PS)” gave a target mRNA inhibition with APOL1 (A431, 2 µM) of 39%.
For the sequence “TTATATTTGATCCTCA (sugars kkddddekekeddddd, PS)”, the target mRNA inhibition in the data set with APOL1 (A431, 2 µM) was 96%.
“TTATATTTGATCCTCA (sugars kkddddkdkdkddddd, PS)”: the target mRNA inhibition came to 15% with APOL1 (A431, 0.0156 µM); 44% with APOL1 (A431, 0.0625 µM); 76% with APOL1 (A431, 0.25 µM); 93% with APOL1 (A431, 1 µM); 96% with APOL1 (A431, 2 µM).
With “TTATGAAATTATTGGT (sugars k2 d4 e4 k2 d4, PS)”, the target mRNA inhibition with APOL1 (A431, 2 µM) was 35%.
Same read-out and setting: then “TTATTCTCATGGTACA (sugars kkddddkekekddddd, PS)”, with 47%.
Take TTATTGCAGGCTCCAA (sugars k4 d9 k3, PS): the target mRNA inhibition with APOL1 (A431, 0.0625 µM) stood at 39%; with APOL1 (A431, 0.25 µM) it was 47%; with APOL1 (A431, 1 µM) it was 76%.
On to TTCAGAATTTCCACTA (sugars k4 d9 k3, PS), for which the target mRNA inhibition with APOL1 (A431, 0.0625 µM) is 40%; with APOL1 (A431, 0.25 µM), 67%; in the data set with APOL1 (A431, 1 µM) it was 87%.
“TTCAGAATTTCCACTA (sugars kdddddkekekddddd, PS)”: in the data set with APOL1 (A431, 2 µM), the target mRNA inhibition stood at 87%.
Consider “TTCAGAATTTCCACTA (sugars kkddddkekekkdddd, PS)”, for which the target mRNA inhibition with APOL1 (A431, 2 µM) came out at 58%.
As to TTCAGCTAAGACCAGT (sugars k4 d9 k3, PS), the target mRNA inhibition with APOL1 (A431, 0.0625 µM) was 35%; in the data set with APOL1 (A431, 0.25 µM), 71%; with APOL1 (A431, 1 µM), 88%.
The corresponding values for TTCATGATCATTTGTC (sugars k4 d9 k3, PS) are 47%, 68% and 81%.
With “TTCTATTAGAGGGCTA (sugars kdddddkekekddddd, PS)”, the target mRNA inhibition with APOL1 (A431, 2 µM) was 45%.
For “TTCTATTAGAGGGCTA (sugars kddddkekekeddddd, PS)”, in the data set with APOL1 (A431, 2 µM), the target mRNA inhibition came to 34%.
Turning to “TTCTATTAGAGGGCTA (sugars kkddddkdkdkddddd, PS)”, in the data set with APOL1 (A431, 2 µM), the target mRNA inhibition stood at 87%.
The sequence “TTCTATTAGAGGGCTA (sugars kkddddkekekkdddd, PS)” gave a target mRNA inhibition in the data set with APOL1 (A431, 2 µM) of 26%.
In turn, “TTCTATTAGAGGGCTA (sugars kkkddddkekekdddd, PS)” showed a target mRNA inhibition with APOL1 (A431, 2 µM) of 42%.
As for “TTCTCATGGTACAGGA (sugars k3 d4 k3 e1 d5, PS)”, the target mRNA inhibition with APOL1 (A431, 2 µM) came to 44%.
As for “TTCTCATGGTACAGGA (sugars kkddddekekeddddd, PS)”, the target mRNA inhibition with APOL1 (A431, 2 µM) turned out to be 79%.
Take “TTCTCATGGTACAGGA (sugars kkddddkekekkdddd, PS)”: the target mRNA inhibition with APOL1 (A431, 2 µM) was determined as 20%.
The same measure, in the same setting: the result for “TTCTCATGGTACAGGA (sugars kkkddddkekekdddd, PS)” reads 54%.
On to TTGATGAGTAGGTGAG (sugars k4 d9 k3, PS), for which the target mRNA inhibition is 72% in the data set with APOL1 (A431, 0.0625 µM); 81% with APOL1 (A431, 0.25 µM); 85% with APOL1 (A431, 1 µM).
TTGGGTCAAAAGCGAT (sugars k4 d9 k3, PS): the target mRNA inhibition came out at 56% with APOL1 (A431, 0.0625 µM); 86% with APOL1 (A431, 0.25 µM); 93% with APOL1 (A431, 1 µM).
For “TTGTAAGTGCAACCAA (sugars k3 d4 k3 e1 d5, PS)”, the target mRNA inhibition with APOL1 (A431, 2 µM) was found to be 78%.
In the data set with APOL1 (A431, 2 µM), “TTGTAAGTGCAACCAA (sugars kkddddekekeddddd, PS)” came in with a target mRNA inhibition of 87%.
Consider “TTGTAAGTGCAACCAA (sugars kkddddkekekkdddd, PS)”, for which the target mRNA inhibition with APOL1 (A431, 2 µM) stood at 54%.
For “TTGTAAGTGCAACCAA (sugars kkkddddkekekdddd, PS)”, the target mRNA inhibition with APOL1 (A431, 2 µM) is 35%.
Still for that read-out and setting: the result for “TTTAAACTCAGGTGAC (sugars kddddkekekeddddd, PS)” reads 43%.
“TTTATACCAGTGTCTT (sugars k2 d4 e3 k2 d5, PS)”: the target mRNA inhibition with APOL1 (A431, 2 µM) came out at 88%.
Sequence “TTTATACCAGTGTCTT (sugars k2 d4 e4 k2 d4, PS)” showed a target mRNA inhibition in the data set with APOL1 (A431, 2 µM) of 89%.
“TTTATACCAGTGTCTT (sugars kkkddddkekekdddd, PS)”: in the data set with APOL1 (A431, 2 µM), the target mRNA inhibition was 76%.
As for “TTTGTAAGTGCAACCA (sugars k3 d5 k3 d5, PS)”, in the data set with APOL1 (A431, 2 µM), the target mRNA inhibition is 98%.
For the sequence TTTGTAAGTGCAACCA (sugars k4 d9 k3, PS), the target mRNA inhibition in the data set with APOL1 (A431, 0.04 µM) was 37% and 23%; with APOL1 (A431, 0.0625 µM) it was 70%; with APOL1 (A431, 0.25 µM), 91%; with APOL1 (A431, 1 µM) it was 97% and 96% and 93%.
Take “TTTGTAAGTGCAACCA (sugars kddddkekekeddddd, PS)”: the target mRNA inhibition in the data set with APOL1 (A431, 2 µM) was 95%.
Regarding “TTTGTAAGTGCAACCA (sugars kekddddeekkddddd, PS)”, the target mRNA inhibition with APOL1 (A431, 0.0156 µM) is 21%; with APOL1 (A431, 0.0625 µM), 46%; with APOL1 (A431, 0.25 µM), 84%; with APOL1 (A431, 1 µM), 96%; with APOL1 (A431, 2 µM), 99%.
For “TTTGTAAGTGCAACCA (sugars kkdddddkekeddddd, PS)”, the target mRNA inhibition with APOL1 (A431, 0.0156 µM) amounted to 36%; with APOL1 (A431, 0.0625 µM), 46%; in the data set with APOL1 (A431, 0.25 µM), 78%; with APOL1 (A431, 1 µM), 91%; with APOL1 (A431, 2 µM) it was 92%.
“TTTGTAAGTGCAACCA (sugars kkddddkdkdkddddd, PS)” yielded a target mRNA inhibition with APOL1 (A431, 2 µM) of 99%.
Consider “TTTGTAAGTGCAACCA (sugars kkkddddkdkdkdddd, PS)”, for which, in the data set with APOL1 (A431, 2 µM), the target mRNA inhibition came to 71%.
The sequence “TTTTGTAAGTGCAACC (sugars k2 d4 e3 k2 d5, PS)” returned a target mRNA inhibition in the data set with APOL1 (A431, 2 µM) of 99%.
With TTTTGTAAGTGCAACC (sugars k4 d9 k3, PS), the target mRNA inhibition came out at 47% with APOL1 (A431, 0.0625 µM); 84% with APOL1 (A431, 0.25 µM); 95% in the data set with APOL1 (A431, 1 µM).
